Measurements: US20220395472A1 (Dermavant Sciences GmbH, priority 2021, published 2022)

System: adults with plaque psoriasis
Experiment: Long-term open-label extension study (PSOARING 3): Physician Global Assessment (PGA), treatment episodes, treatment success, remittive effect
Type: in vivo, human
Method: This extension study consisted of up to 40 weeks of treatment and a 4 week, safety follow up period.
At the completion of the Week 12 visit of the DB, pivotal Phase 3 study, eligibility of the subjects opting to enroll in this extension study was confirmed. Study visits during the treatment period for all subjects occurred every 4 weeks (±3 days). A phone call was performed at Week 2 (Day 15). Unscheduled visits may have occurred, as needed. Subjects who withdrew from this study before Week 40 returned to the study center for an Early Termination visit. The total duration of this extension study participation was 44 weeks. Subjects in this study were treated as follows based on their PGA score from the Week 12 visit in the DB, pivotal Phase 3 study (Study DMVT 505 3001 or Study DMVT 505 3002).
The PGA was used to assess the primary efficacy endpoint in this study. The PGA is a clinical tool for assessing the current state/severity of a subject's psoriasis at a given time point. It is a static, 5 point, morphological assessment of overall disease severity, as determined by the Investigator, using the clinical characteristics of erythema, scaling, and plaque thickness/elevation as guidelines; higher PGA scores represent more severe disease (0=clear, 1=almost clear, 2=mild, 3=moderate, and 4=severe). The BSA affected was not considered in scoring of the PGA. Variations of the PGA are frequently used in clinical studies because it is a simple assessment, similar to those used in clinical practice. The PGA was performed first, prior to the % BSA, PASI, and LTS assessments.
Time to event parameters, such as the time from treatment success to subsequent worsening (PGA≥2) or duration of treatment episode, were summarized by the Kaplan Meier product limit method using OC.

[1] = Week 16, LOCF, Vehicle (Pivotal) group
[2] = Week 16, OC, Vehicle (Pivotal) group
[3] = Week 16 LOCF, Tapinarof (Pivotal)
[4] = Week 16 LOCF, Vehicle (Pivotal)
[5] = Week 16 OC, Tapinarof (Pivotal)

Question: How did the “Total Duration of Treatment Success, Median” value (ITT, Vehicle (Pivotal) group) turn out when `CC(C)c1c(O)cc(/C=C/c2ccccc2)cc1O` [Tapinarof, 3,5-Dihydroxy-4-isopropyl-trans-stilbene] was run?
Answer: 97.0 days

Question: And the “tachyphylaxis (decline of clinical effects over time on treatment)” value (PGA, % BSA, PASI over time)?
Answer: not observed

Question: What about the “Subjects with PGA=1” value (Week 16, LOCF, Tapinarof (Pivotal) group) of the same compound?
Answer: 30.4%

Question: And the “Subjects with PGA=0” value [1]?
Answer: 12.7%

Question: And the “Subjects with PGA=1” value [1]?
Answer: 25.8%

Question: And the “Subjects with PGA=1” value (Week 16, OC, Tapinarof (Pivotal) group)?
Answer: 32.2%

Question: What about the “Subjects with PGA=0” value [2] of the same compound?
Answer: 12.9%

Question: What about the “Subjects with PGA=1” value [2] of the same compound?
Answer: 28.2%

Question: What about the “PGA 0 - Clear” value (Week 16 LOCF, Overall) of the same compound?
Answer: 121 (16.2) n (%)

Question: And the “PGA 1 - Almost Clear” value (Week 16 LOCF, Overall)?
Answer: 215 (28.9) n (%)

Question: And the “PGA 2 - Mild” value (Week 16 LOCF, Overall)?
Answer: 279 (37.4) n (%)

Question: And the “PGA 3 - Moderate” value (Week 16 LOCF, Overall)?
Answer: 119 (16.0) n (%)

Question: And the “PGA 4 - Severe” value (Week 16 LOCF, Overall)?
Answer: 11 (1.5) n (%)

Question: And the “PGA Change from Baseline: Improved by 1” value (Week 16 LOCF, Overall)?
Answer: 219 (29.5) n (%)

Question: And the “PGA Change from Baseline: Improved by 2” value (Week 16 LOCF, Overall)?
Answer: 91 (12.3) n (%)

Question: What about the “PGA Change from Baseline: Improved by 3” value (Week 16 LOCF, Overall) of the same compound?
Answer: 14 (1.9) n (%)

Question: What about the “PGA Change from Baseline: Improved by 4” value (Week 16 LOCF, Overall) of the same compound?
Answer: 2 (0.3) n (%)

Question: What about the “PGA Change from Baseline: No Change” value (Week 16 LOCF, Overall) of the same compound?
Answer: 297 (40.0) n (%)

Question: And the “PGA Change from Baseline: Worsened by 1” value (Week 16 LOCF, Overall)?
Answer: 86 (11.6) n (%)

Question: What about the “PGA Change from Baseline: Worsened by 2” value (Week 16 LOCF, Overall) of the same compound?
Answer: 28 (3.8) n (%)

Question: What about the “PGA Change from Baseline: Worsened by 3” value (Week 16 LOCF, Overall) of the same compound?
Answer: 5 (0.7) n (%)

Question: What about the “PGA Change from Baseline: Worsened by 4” value (Week 16 LOCF, Overall) of the same compound?
Answer: 0 (0.0) n (%)

Question: What about the “PGA 1 - Almost Clear” value [3] of the same compound?
Answer: 150 (30.4) n (%)

Question: What about the “PGA 2 - Mild” value [3] of the same compound?
Answer: 174 (35.3) n (%)

Question: What about the “PGA 3 - Moderate” value [3] of the same compound?
Answer: 74 (15.0) n (%)

Question: What about the “PGA 4 - Severe” value [3] of the same compound?
Answer: 6 (1.2) n (%)

Question: What about the “PGA Change from Baseline: Improved by 1” value [3] of the same compound?
Answer: 122 (24.8) n (%)

Question: What about the “PGA Change from Baseline: Improved by 2” value [3] of the same compound?
Answer: 37 (7.5) n (%)

Question: What about the “PGA Change from Baseline: Improved by 3” value [3] of the same compound?
Answer: 1 (0.2) n (%)

Question: And the “PGA Change from Baseline: Improved by 4” value [3]?
Answer: 1 (0.2) n (%)

Question: What about the “PGA Change from Baseline: No Change” value [3] of the same compound?
Answer: 223 (45.4) n (%)

Question: And the “PGA Change from Baseline: Worsened by 1” value [3]?
Answer: 77 (15.7) n (%)

Question: And the “PGA Change from Baseline: Worsened by 2” value [3]?
Answer: 25 (5.1) n (%)

Question: And the “PGA Change from Baseline: Worsened by 3” value [3]?
Answer: 5 (1.0) n (%)

Question: What about the “PGA Change from Baseline: Worsened by 4” value [3] of the same compound?
Answer: 0 (0.0) n (%)

Question: And the “PGA 0 - Clear” value [4]?
Answer: 32 (12.7) n (%)

Question: What about the “PGA 1 - Almost Clear” value [4] of the same compound?
Answer: 65 (25.8) n (%)

Question: What about the “PGA 3 - Moderate” value [4] of the same compound?
Answer: 45 (17.9) n (%)

Question: What about the “PGA 4 - Severe” value [4] of the same compound?
Answer: 5 (2.0) n (%)

Question: And the “PGA Change from Baseline: Improved by 1” value [4]?
Answer: 97 (38.6) n (%)

Question: And the “PGA Change from Baseline: Improved by 2” value [4]?
Answer: 54 (21.5) n (%)

Question: And the “PGA Change from Baseline: Improved by 3” value [4]?
Answer: 13 (5.2) n (%)

Question: And the “PGA Change from Baseline: Improved by 4” value [4]?
Answer: 1 (0.4) n (%)

Question: And the “PGA Change from Baseline: No Change” value [4]?
Answer: 74 (29.5) n (%)

Question: What about the “PGA Change from Baseline: Worsened by 1” value [4] of the same compound?
Answer: 9 (3.6) n (%)

Question: What about the “PGA Change from Baseline: Worsened by 2” value [4] of the same compound?
Answer: 3 (1.2) n (%)

Question: What about the “PGA Change from Baseline: Worsened by 3” value [4] of the same compound?
Answer: 0 (0.0) n (%)

Question: What about the “PGA Change from Baseline: Worsened by 4” value [4] of the same compound?
Answer: 0 (0.0) n (%)

Question: What about the “PGA 0 - Clear” value (Week 16 OC, Overall) of the same compound?
Answer: 107 (17.0) n (%)

Question: What about the “PGA 1 - Almost Clear” value (Week 16 OC, Overall) of the same compound?
Answer: 194 (30.9) n (%)

Question: And the “PGA 2 - Mild” value (Week 16 OC, Overall)?
Answer: 236 (37.6) n (%)

Question: What about the “PGA 3 - Moderate” value (Week 16 OC, Overall) of the same compound?
Answer: 86 (13.7) n (%)

Question: And the “PGA 4 - Severe” value (Week 16 OC, Overall)?
Answer: 5 (0.8) n (%)

Question: And the “PGA Change from Baseline: Improved by 1” value (Week 16 OC, Overall)?
Answer: 190 (30.3) n (%)

Question: And the “PGA Change from Baseline: Improved by 2” value (Week 16 OC, Overall)?
Answer: 77 (12.3) n (%)

Question: What about the “PGA Change from Baseline: Improved by 3” value (Week 16 OC, Overall) of the same compound?
Answer: 13 (2.1) n (%)

Question: What about the “PGA Change from Baseline: Improved by 4” value (Week 16 OC, Overall) of the same compound?
Answer: 2 (0.3) n (%)

Question: What about the “PGA Change from Baseline: No Change” value (Week 16 OC, Overall) of the same compound?
Answer: 246 (39.2) n (%)

Question: And the “PGA Change from Baseline: Worsened by 1” value (Week 16 OC, Overall)?
Answer: 69 (11.0) n (%)

Question: What about the “PGA Change from Baseline: Worsened by 2” value (Week 16 OC, Overall) of the same compound?
Answer: 25 (4.0) n (%)

Question: And the “PGA Change from Baseline: Worsened by 3” value (Week 16 OC, Overall)?
Answer: 5 (0.8) n (%)

Question: And the “PGA Change from Baseline: Worsened by 4” value (Week 16 OC, Overall)?
Answer: 0 (0.0) n (%)

Question: What about the “PGA 0 - Clear” value [5] of the same compound?
Answer: 80 (19.1) n (%)

Question: And the “PGA 1 - Almost Clear” value [5]?
Answer: 135 (32.2) n (%)

Question: And the “PGA 2 - Mild” value [5]?
Answer: 146 (34.8) n (%)

Question: What about the “PGA 3 - Moderate” value [5] of the same compound?
Answer: 54 (12.9) n (%)

Question: And the “PGA 4 - Severe” value [5]?
Answer: 4 (1.0) n (%)

Question: And the “PGA Change from Baseline: Improved by 1” value [5]?
Answer: 109 (26.1) n (%)

Question: And the “PGA Change from Baseline: Improved by 2” value [5]?
Answer: 29 (6.9) n (%)

Question: And the “PGA Change from Baseline: Improved by 3” value [5]?
Answer: 1 (0.2) n (%)

Question: And the “PGA Change from Baseline: Improved by 4” value [5]?
Answer: 1 (0.2) n (%)

Question: And the “PGA Change from Baseline: No Change” value [5]?
Answer: 187 (44.7) n (%)

Question: And the “PGA Change from Baseline: Worsened by 2” value [5]?
Answer: 23 (5.5) n (%)

Question: And the “PGA Change from Baseline: Worsened by 3” value [5]?
Answer: 5 (1.2) n (%)

Question: And the “PGA Change from Baseline: Worsened by 4” value [5]?
Answer: 0 (0.0) n (%)

Question: And the “PGA 0 - Clear” value (Week 16 OC, Vehicle (Pivotal))?
Answer: 27 (12.9) n (%)

Question: What about the “PGA 1 - Almost Clear” value (Week 16 OC, Vehicle (Pivotal)) of the same compound?
Answer: 59 (28.2) n (%)

Question: And the “PGA 2 - Mild” value (Week 16 OC, Vehicle (Pivotal))?
Answer: 90 (43.1) n (%)

Question: And the “PGA 3 - Moderate” value (Week 16 OC, Vehicle (Pivotal))?
Answer: 32 (15.3) n (%)

Question: And the “PGA 4 - Severe” value (Week 16 OC, Vehicle (Pivotal))?
Answer: 1 (0.5) n (%)

Question: And the “PGA Change from Baseline: Improved by 1” value (Week 16 OC, Vehicle (Pivotal))?
Answer: 81 (38.8) n (%)

Question: And the “PGA Change from Baseline: Improved by 2” value (Week 16 OC, Vehicle (Pivotal))?
Answer: 48 (23.0) n (%)

Question: What about the “PGA Change from Baseline: Improved by 3” value (Week 16 OC, Vehicle (Pivotal)) of the same compound?
Answer: 12 (5.7) n (%)
